Assay results published in article PMC9696794, “Synthesis and Antimicrobial Activity of Short Analogues of the Marine Antimicrobial Peptide Turgencin A: Effects of SAR Optimizations, Cys-Cys Cyclization and Lipopeptide Modifications” (International Journal of Molecular Sciences, 2022).
Values after ≈ are worked out from the molar mass of the structure shown. Where a SMILES comes first, the peptide text is derived from it. Bridges are numbered along the chain shown (N, C = ends). The star is where a group is joined. Lauroyl = CCCCCCCCCCCC(=O)*; Decanoyl = CCCCCCCCCC(=O)*

Legend:
A. pullulans (Ap) = experiment: microbe, parasite or virus in culture; format: cell-based, Aurobasidium pollulans; details: 48 h
In short: (§1)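 Overnight cultures in potato dextrose broth with 2% glucose at 25–30 °C were diluted to approx. 4 × 10^5 spores/mL and mixed 1:1 with two-fold peptide dilutions plated at 256 to 1 µg/mL. After 48 h at room temperature, OD600 was read. MIC was the lowest concentration giving OD below 10% of the growth control, in triplicate.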

[1] = tested on: B. subtilis (Bs, ATCC 23857); experiment: microbe, parasite or virus in culture; format: cell-based, Bacillus subtilis; details: ATCC 23857, 24 h
In short: (§2)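 Cultures grown in Mueller–Hinton broth were adjusted by OD600 to 2.5–3 × 10^4 CFU/mL and mixed with two-fold peptide dilutions from 256 to 1 µg/mL. Plates were incubated at 35 °C with OD595 monitored every hour for 24 h.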

all bacterial strains = experiment: Antibacterial MIC assay, all bacterial strains together (range or geometric mean); format: cell-based; details: for GM (geometric mean of the MIC values against all bacterial strains): Table 1, six bacterial strains; for GM of MIC Tot. bact.: Table S3, all bacterial test strains, MIC >256 set to 256
In short: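 Broth microdilution in Mueller–Hinton broth against B. subtilis, C. glutamicum, S. aureus, S. epidermidis RP62A, E. coli and P. aeruginosa; inoculum 2.5–3 × 10^4 CFU/mL, 35 °C, OD595 read hourly for 24 h. MIC: lowest peptide concentration giving OD below 10% of growth control; geometric mean across strains, triplicate.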

[2] = tested on: Gram-positive bacterial strains; details: Table S3; MIC >256 set to 256
In short: as §2

[3] = tested on: fungi (A. pullulans, C. albicans, Rhodotorula sp.); experiment: Antifungal MIC assay, all fungi together (range or geometric mean); format: cell-based; details: Table S3; MIC >128 set to 128
In short: as §1

[4] = tested on: P. aeruginosa (Pa, ATCC 27853); experiment: microbe, parasite or virus in culture; format: cell-based, Pseudomonas aeruginosa; details: ATCC 27853, 24 h
In short: as §2

[5] = tested on: E. coli MC4100 (wild type, WT); experiment: microbe, parasite or virus in culture; details: wild type
Description: (§3) All cyclic and linear peptides were screened for antibacterial activity against four Gram-positive strains: B. subtilis (Bs, ATCC 23857), C. glutamicum (Cg, ATCC 13032), S. aureus (Sa, ATCC 9144) and S. epidermidis RP62A (Se, ATCC 35984), and two Gram-negative strains: E. coli (Ec, ATCC 25922) and P. aeruginosa (Pa, ATCC 27853). The activity was assessed using a broth microdilution assay according to a modified CLSI-based method. Briefly, overnight bacterial cultures were grown in Mueller–Hinton (MH) broth medium (Difco Laboratories, Detroit, MI, USA) for 2 h at room temperature. The optical density (OD600) was measured, and the bacterial suspensions were adjusted to 2.5–3 × 10^4 CFU/mL in MH medium. The bacterial suspension (50 µL) was distributed in 96-well plates (Nunc, Roskilde, Denmark) preloaded with two-fold dilution series (256 to 1 µg/mL) of peptide solutions (50 µL), giving a final well volume of 100 µL. The microplates were incubated in an EnVision 2103 microplate reader (PerkinElmer, Llantrisant, UK) at 35 °C, with OD595 recorded every hour for 24 h. MIC was defined as the lowest concentration of peptides showing an optical density less than 10% of the negative (growth) control, consisting of bacterial suspension and water. Polymyxin B sulfate (Sigma-Aldrich, St. Louis, MO, USA) and chlorhexidine acetate (CHX, Fresenius Kabi, Halden, Norway), both with concentrations ranging from 12.5 to 0.09 μg/mL, served as positive (growth inhibition) controls. All peptides were tested in triplicate.
(§4) MIC values were determined for all cyclic peptides against two E. coli strains: wild type (WT) MC4100 and the hyperpermeable variant NR698, having a deficient outer membrane. The NR698 strain, containing lptD4213/imp4213 mutation, was kindly provided by M. Grabowicz (Emory University School of Medicine, Rollins Research Center, Atlanta, GA, USA). The assay was performed in the same way as previously described for the antibacterial MIC assay.

[6] = tested on: E. coli NR698 (outer membrane permeable mutant, imp4213); experiment: microbe, parasite or virus in culture; details: MC4100 NR698 imp4213, deficient outer membrane
Description: as §3, §4

[7] = tested on: human red blood cells (RBC); experiment: Haemolytic activity assay; format: cell-based; details: for Selectivity index (SI) G-: EC50/GM of Gram-negative strains; for Selectivity index (SI) G+: EC50/GM of Gram-positive strains; for SI (selectivity index = EC50/GM): haemolytic EC50 over GM of MIC against all bacterial strains, Table 1; for RBC Tox. (EC50), haemolytic activity: human RBC, 1 h, 37 °C, concentration giving 50% haemolysis; for Selectivity index (SI) Fungi: EC50/GM of fungi
In short: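 Washed human erythrocytes (1% hematocrit final) incubated 1 h at 37 °C with agitation with lipopeptides at 500–3.9 μM in PBS (≤1% DMSO), duplicates. Haemoglobin release read at 545 nm relative to 0.1% Triton X-100; EC50 is 50% haemolysis, averaged from three experiments.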

[8] = tested on: C. albicans (Ca, ATCC 10231); experiment: microbe, parasite or virus in culture; format: cell-based, Candida albicans; details: ATCC 10231, 48 h
In short: as §1

[9] = tested on: S. aureus (Sa, ATCC 9144); experiment: microbe, parasite or virus in culture; format: cell-based, Staphylococcus aureus; details: ATCC 9144, 24 h
In short: as §2

[10] = tested on: Gram-negative bacterial strains (E. coli and P. aeruginosa); experiment: Antibacterial MIC assay, Gram-negative strains together (range or geometric mean); format: cell-based; details: Table S3; MIC >256 set to 256
In short: as §2

[11] = tested on: S. epidermidis RP62A (Se, ATCC 35984); experiment: microbe, parasite or virus in culture; format: cell-based, Staphylococcus epidermidis; details: ATCC 35984, 24 h
In short: as §2

[12] = tested on: C. glutamicum (Cg, ATCC 13032); experiment: microbe, parasite or virus in culture; format: cell-based, Corynebacterium glutamicum; details: ATCC 13032, 24 h
In short: as §2

Rhodotorula sp. (Rh) = experiment: microbe, parasite or virus in culture; format: cell-based; details: 48 h
In short: as §1

E. coli (Ec, ATCC 25922) = experiment: microbe, parasite or virus in culture; format: cell-based, Escherichia coli; details: ATCC 25922, 24 h
In short: as §2

[13] = Table S3, highest tested concentration used where EC50 above it

Structure (SMILES)	Antimicrobial Activity (MIC) Fungi Ap (A. pullulans (Ap)) [µg/mL]	Antimicrobial Activity (MIC) Gram + Bs [1] [µg/mL]	GM (geometric mean of the MIC values against all bacterial strains) (all bacterial strains) [µg/mL]	GM of MIC Tot. bact. (all bacterial strains) [µg/mL]	GM of MIC G+ [2] [µg/mL]	GM of MIC Fungi [3] [µg/mL]	Antimicrobial Activity (MIC) Gram − Pa [4] [µg/mL]	MIC E. coli MC4100 (WT) [5] [µg/mL]	MIC E. coli NR698 (mutant) [6] [µg/mL]	Selectivity index (SI) G- [7, 13]	Selectivity index (SI) G+ [7, 13]	SI (selectivity index = EC50/GM) [7]	RBC Tox. (EC50), haemolytic activity [7] [µg/mL]	Antimicrobial Activity (MIC) Fungi Ca [8] [µg/mL]	Antimicrobial Activity (MIC) Gram + Sa [9] [µg/mL]	GM of MIC G- [10] [µg/mL]	Antimicrobial Activity (MIC) Gram + Se [11] [µg/mL]	Antimicrobial Activity (MIC) Gram + Cg [12] [µg/mL]	Antimicrobial Activity (MIC) Fungi Rh (Rhodotorula sp. (Rh)) [µg/mL]	Antimicrobial Activity (MIC) Gram − Ec (E. coli (Ec, ATCC 25922)) [µg/mL]	also measured
CCCCCCCCCC(=O)N[C@H]1CSSC[C@@H](C(=O)N[C@@H](CCCNC(=N)N)C(=O)N[C@@H](CC(C)C)C(N)=O)NC(=O)[C@H](CCCNC(=N)N)NC(=O)[C@H](Cc2c[nH]c3ccccc23)NC(=O)[C@H](Cc2c[nH]c3ccccc23)NC(=O)CNC(=O)[C@H](Cc2c[nH]c3ccccc23)NC(=O)[C@H](CCCNC(=N)N)NC(=O)[C@H](CCCNC(=N)N)NC(=O)CNC1=O [Peptide C10-cTurg-6, C10- (CGRRWGWWRC)RL-NH2] (Decanoyl-CGRRWGWWRCRL-NH2; disulfide 1-10)	64	4	8	8	6	51	16	8 (≈ 4.48 µM)	8 (≈ 4.48 µM)	1	3	2	16	64	8	16	8	4	32	16	
CCCCCCCCCCCC(=O)N[C@H]1CSSC[C@@H](C(=O)N[C@@H](CCCCN)C(=O)N[C@@H](CC(C)C)C(N)=O)NC(=O)[C@H](CCCCN)NC(=O)[C@H](Cc2c[nH]c3ccccc23)NC(=O)CNC(=O)[C@H](Cc2c[nH]c3ccccc23)NC(=O)[C@H](Cc2c[nH]c3ccccc23)NC(=O)[C@H](CCCCN)NC(=O)[C@H](CCCCN)NC(=O)CNC1=O [Peptide C12-cTurg-2, C12- (CGKKWWGWKC)KL-NH2] (Lauroyl-CGKKWWGWKCKL-NH2; disulfide 1-10)	32	4	9	9	7	40	16	8 (≈ 4.7 µM)	8 (≈ 4.7 µM)	2	5	4	32	64	8	16	8	8	32	16	Selectivity index (SI) Fungi [7, 13]: 1
CCCCCCCCCCCC(=O)N[C@H]1CSSC[C@@H](C(=O)N[C@@H](CCCNC(=N)N)C(=O)N[C@@H](CC(C)C)C(N)=O)NC(=O)[C@H](CCCNC(=N)N)NC(=O)[C@H](Cc2c[nH]c3ccccc23)NC(=O)[C@H](Cc2c[nH]c3ccccc23)NC(=O)CNC(=O)[C@H](Cc2c[nH]c3ccccc23)NC(=O)[C@H](CCCNC(=N)N)NC(=O)[C@H](CCCNC(=N)N)NC(=O)CNC1=O [Peptide C12-cTurg-6, C12- (CGRRWGWWRC)RL-NH2] (Lauroyl-CGRRWGWWRCRL-NH2; disulfide 1-10)	64	8	14	14	10	81	32	16 (≈ 8.82 µM)	16 (≈ 8.82 µM)		1		9	128	16	32	8	8	64	32	Selectivity index (SI) Tot. bact. ([7]; Table S3, EC50/GM of all bacterial strains, highest tested concentration used where EC50 above it): 1
CC(C)C[C@H](NC(=O)[C@H](CCCCN)NC(=O)[C@@H]1CSSC[C@H](N)C(=O)NCC(=O)N[C@@H](CCCCN)C(=O)N[C@@H](CCCCN)C(=O)N[C@@H](Cc2c[nH]c3ccccc23)C(=O)N[C@@H](Cc2c[nH]c3ccccc23)C(=O)NCC(=O)N[C@@H](Cc2c[nH]c3ccccc23)C(=O)N[C@@H](CCCCN)C(=O)N1)C(N)=O [cTurg-2] (H-CGKKWWGWKCKL-NH2; disulfide 1-10; N-terminus assumed)	32	8	20	20	11	32	64	16 (≈ 10.5 µM)	8 (≈ 5.26 µM)	> 16	> 92	>52	>1045	32	32	64	16	4	32	64	Selectivity index (SI) Fungi [7, 13]: > 33
